Laboratory results from patent US7754699B2, “Antiviral nucleosides” (Roche Palo Alto LLC, priority 2005, dated 2010).
In brackets after ≈: the same amount, converted by molar mass. Read-outs that look alike come from different tables or passages of the source.

Tests used:
[1] = system: HCV; conditions: monotherapy; cited from earlier work
[2] = Solubility; assay type: physicochemical
Description: (§1) Particularly relevant are water solubility, partition coefficient and stability in gastric and intestinal fluids. […] The solubility in water of a orally administered prodrug should be greater than at least about 0.1 mg/mL for optimal formulation and the half-lives in simulated gastric fluid and simulated intestinal fluid should be 1-2 h and 2-4 h respectively to allow sufficient time to traverse the stomach and be absorbed in the intestine.

[3] = in vitro; assay type: in vitro ADME; conditions: human, Caco-2, Caco-2 (2-7d) Papp
Description: To further evaluate potential behavior in human subjects, the transport through Caco-2 cells was evaluated for the putative prodrugs. Caco-2 cells are commonly used to evaluated the potential absorption/permeability of molecules (G. Gaviraghi et al. in Pharmacokinetic optimization in drug research. Biological, Pharmacokinetic and Computational Strategies. B. Testa et al. eds. Wiley Interscience VCH, Zurich 2001 pp 3-14).
Powders of Krebs-Henseleit buffer, calcium chloride dihydrate, and sodium bicarbonate were purchased from Sigma (St. Louis, Mo.). Caco-2 cells (Passage ˜100) were obtained from Roche Basel. DMEM/high medium, 4-(2-hydroxyethyl)-1-piperazineethane-sulfonic acid (HEPES), and bovine serum were obtained from JRH Bioscience (Lenexa, Kans.). MEM nonessential amino acids, L-glutamine, penicillin, and streptomycin were obtained from GIBCO Labs, Life Tech. LLC (Grand Island, N.Y.). Snapwell cell culture inserts ([…], 1.12 cm^2, 0.4 μm pore size) were obtained from Costar (Cambridge, Mass.).
Cells were grown in 75-cm^2 flasks and maintained at 37° C. in an atmosphere of 5% CO2 and 95% air. Culture media consisted of DMEM/high medium supplemented with 5% bovine serum, 25 mM HEPES, 1% MEM non-essential amino acids, 1% L-glutamine, 100 U/mL penicillin, and 100 μg/mL streptomycin. Cultures were passaged every week at a split ratio of 1-3. For the permeability studies, Caco-2 cells at passage number 110-120 were plated at a density of 400,000 cells/cm^2 on Transwell polycarbonate filters in Snapwell inserts and allowed to culture for 7 days prior to use.
Krebs-Henseleit bicarbonate buffer containing 10 mM glucose and 2.5 mM CaCl2 adjusted to pH 6.5 and 7.4 were prepared per packet instructions. Powder salts were quantitatively dissolved in about 90% of required volume with Millipore water. Calcium chloride dihydrate and sodium bicarbonate were added before pH adjustment with 1N HCl or 1N NaOH. Additional Millipore water was added to bring the solution to final volume. The solution was sterilized by filtration using membrane with a porosity of 0.22 microns and stored in the refrigerator ([…]) until use.
Differentiated cells were obtained from Cell Culture Core Facility and allowed to equilibrate at 37° C. in an atmosphere of 5% CO2 and 95% air. Snapwells inserts, containing caco-2 monolayers were rinsed in 37° C. equilibrated Krebs-Henseleit pH 7.4 buffer.
The cell insert was utilized as the diffusion chamber. The pH of the Krebs-Henseleit buffer in the apical and basolateral chambers was 6.5 and 7.4, respectively, and the initial concentration of substrate in apical side was 100 μM. […]
The Papp was calculated using the following formula: […]

[4] = Stability in simulated intestinal fluid; assay type: physicochemical; conditions: simulated intestinal fluid pH 7.4, 37° C.; read-out: SIF T1/2 (converted)
Description: as §1

[5] = Stability in simulated gastric fluid; assay type: physicochemical; conditions: simulated gastric fluid pH 1.2, 37° C.; read-out: SGF T1/2 (converted)
Description: as §1

[6] = Experimentally determined distribution coefficient; assay type: physicochemical; conditions: octanol/buffered aqueous solution, pH 7.4; read-out: log D (distribution coefficient)
Text: The expression PO/W as used herein refers to the octanol/water partition coefficient. The expression clogP as used herein refers to the calculated PO/W. Computer programs which calculate PO/W are readily available to the pharmaceutical and medicinal chemist. The term distribution coefficient refers to the experimentally determined partition coefficient between octanol and a buffered aqueous solution. The partition coefficient and distribution coefficient are generally similar but the latter is a function of the pH of the aqueous solution whereas the PO/W is independent of pH.

[7] = simulated gastric fluid (SGF), simulated gastric fluid, read-out: Solubility in SGF
[8] = simulated intestinal fluid (SIF), fassgf or other biorelevant, media is SIF, read-out: Solubility
[9] = aqueous media, water, or buffer pH 6.5, read-out: Solubility

Structure (SMILES) | solubility [2, 7] [µg/mL] | Papp A→B at 30 min, 100 μM [3] [×10⁻⁶ cm/s] | half-life [4] [h] | half-life [5] [h] | melting point [°C] | solubility [2, 9] [µg/mL] | logD [6] | reduces serum amino transferase levels to normal [1] | serum levels of HCV-RNA [1] | solubility [2, 8] [µg/mL]
NC(=O)c1ncn([C@@H]2O[C@H](CO)[C@@H](O)[C@H]2O)n1 [ribavirin, 1-((2R,3R,4S,5R)-3,4-Dihydroxy-5-hydroxymethyl-tetrahydro-furan-2-yl)-1H-[1,2,4]triazole-3-carboxylic acid amide] |  |  |  |  |  |  |  | 40 % of patients | does not lower | 
CC(C)COC(=O)OC[C@H]1O[C@@H](n2ccc(N)nc2=O)[C@](C)(F)[C@@H]1OC(=O)OCC(C)C [I-4, Carbonic acid (2R,3R,4R,5R)-5-(4-amino-2-oxo-2H-pyrimidin-1-yl)-4-fluoro-2-isobutoxycarbonyloxymethyl-4-methyl-tetrahydro-furan-3-yl ester isobutyl ester] | 160 (≈ 0.348 mM) | 6.4 | > 15 | > 7 | 210 to 211.5 |  |  |  |  | 13 (≈ 0.0283 mM)

Continued, in another order:

solubility [2, 7] [µg/mL] | Papp A→B at 30 min, 100 μM [3] [×10⁻⁶ cm/s] | half-life [4] [h] | half-life [5] [h] | melting point [°C] | solubility [2, 9] [µg/mL] | logD [6] | Structure (SMILES) | reduces serum amino transferase levels to normal [1] | serum levels of HCV-RNA [1] | solubility [2, 8] [µg/mL]
 | 13.4 | > 11 | > 10.4 | 192 to 194.4 | 130 |  | CCCOC(=O)OC[C@H]1O[C@@H](n2ccc(N)nc2=O)[C@](C)(F)[C@@H]1OC(=O)OCCC.Cl [I-5, Carbonic acid (2R,3R,4R,5R)-5-(4-amino-2-oxo-2H-pyrimidin-1-yl)-4-fluoro-4-methyl-2-propoxycarbonyloxymethyl-tetrahydro-furan-3-yl ester propyl ester; hydrochloride salt] |  |  | 
 | 0.4 | > 12 | > 12 |  | 76000 (≈ 293 mM) |  | C[C@@]1(F)[C@H](O)[C@@H](CO)O[C@H]1n1ccc(N)nc1=O [I-6, 4-amino-1-((2R,3R,4R,5R)-3-fluoro-4-hydroxy-5-hydroxymethyl-3-methyl-tetrahydro-furan-2-yl)-1H-pyrimidin-2-one, reference compound] |  |  | 
13300 (≈ 33.3 mM) | 3.93 | 866 | 25.1 |  | 180 (≈ 0.451 mM) | 1.67 | CC(C)C(=O)OC[C@H]1O[C@@H](n2ccc(N)nc2=O)[C@](C)(F)[C@@H]1OC(=O)C(C)C [I-2, Isobutyric acid (2R,3R,4R,5R)-5-(4-amino-2-oxo-2H-pyrimidin-1-yl)-4-fluoro-3-isobutyryloxy-4-methyl-tetrahydro-furan-2-ylmethyl ester] |  |  | 
13600 (≈ 36.6 mM) |  | 72 | 9 | 185.2 to 186 |  | 0.9 | CCC(=O)OC[C@H]1O[C@@H](n2ccc(N)nc2=O)[C@](C)(F)[C@@H]1OC(=O)CC [I-3, Propionic acid (2R,3R,4R,5R)-5-(4-amino-2-oxo-2H-pyrimidin-1-yl)-4-fluoro-4-methyl-3-propionyloxy-tetrahydro-furan-2-ylmethyl ester] |  |  | 3700 (≈ 9.96 mM)
